Results on two molecules are retold here after patent US20050176945A1, “Cloning and characterization of slc26a7 and slc26a9 anion exchangers” (priority 2002, published 2005).

Test [1] deals with SLC26A2. The settings on record: 25 mM Cl- added to the medium. The method, then:
(§1) Oocytes expressing SLC26A2, SLC26A7, or SLC26A9, or control oocytes (H2O) were incubated in medium containing ^35SO4^2− for one hour. (−), Cl^−-free medium; (+), 25 mM Cl^− added to the medium; hr, hour.
(§2) Full-length mouse SLC26A7 and SLC26A9 cDNAs were cloned into the Xenopus expression vector pGEMHE (Liman et al., 1992). SLC26A6 and SLC26A2 constructs were also prepared for use as controls in transport assays (Example 7). Expression constructs were linearized, and cRNA was transcribed in vitro using T7 RNA polymerase and a […] MMACHINE® transcription kit (Ambion, Inc. of Austin, Tex., United States of America). Defolliculated oocytes were injected with 25 nl to 50 nl of water or with a solution containing cRNA at a concentration of 0.5 μg/μl (12.5 ng to 25 ng per oocyte) using a Nanoliter-2000 injector (WPI Instruments of Sarasota, Fla., United States of America). Oocytes were incubated at 17° C. in 50% Leibovitz's L-15 media supplemented with penicillin/streptomycin (1000 units/ml) and glutamine for 2-3 days for uptake assays.
(§3) For sulphate uptake assays, oocytes were pre-incubated for 20 minutes in chloride-free uptake medium (100 mM NMDG gluconate, 2 mM potassium gluconate, 1 mM calcium gluconate, 1 mM magnesium gluconate, 10 mM HEPES-Tris, pH 6.0 or pH 7.5 as indicated), followed by a 60-minute period for uptake in the same medium supplemented with 1 mM K2^35SO4 (40 μCi/ml). The cells were then washed three times in uptake buffer with 5 mM cold K2SO4 to remove tracer activity in the extracellular fluid. The oocytes were dissolved individually in 10% SDS, and tracer activity was determined by scintillation counting. Uptake of chloride, formate, and oxalate was assayed using the same chloride-free uptake solutions, substituting 8.3 mM ^36Cl, 500 μM [^14C]oxalate, or 50 μM [^14C]formate for labeled sulphate. Each uptake experiment included 12-18 oocytes in each experimental group, and results were reported as means±SEM. […]

Test [2] deals with T1, SLC26A9 (Mus musculus, UniProt Q8BU91, G332D/L540F).
T1 sequence (Q8BU91 1-790 G332D/L540F): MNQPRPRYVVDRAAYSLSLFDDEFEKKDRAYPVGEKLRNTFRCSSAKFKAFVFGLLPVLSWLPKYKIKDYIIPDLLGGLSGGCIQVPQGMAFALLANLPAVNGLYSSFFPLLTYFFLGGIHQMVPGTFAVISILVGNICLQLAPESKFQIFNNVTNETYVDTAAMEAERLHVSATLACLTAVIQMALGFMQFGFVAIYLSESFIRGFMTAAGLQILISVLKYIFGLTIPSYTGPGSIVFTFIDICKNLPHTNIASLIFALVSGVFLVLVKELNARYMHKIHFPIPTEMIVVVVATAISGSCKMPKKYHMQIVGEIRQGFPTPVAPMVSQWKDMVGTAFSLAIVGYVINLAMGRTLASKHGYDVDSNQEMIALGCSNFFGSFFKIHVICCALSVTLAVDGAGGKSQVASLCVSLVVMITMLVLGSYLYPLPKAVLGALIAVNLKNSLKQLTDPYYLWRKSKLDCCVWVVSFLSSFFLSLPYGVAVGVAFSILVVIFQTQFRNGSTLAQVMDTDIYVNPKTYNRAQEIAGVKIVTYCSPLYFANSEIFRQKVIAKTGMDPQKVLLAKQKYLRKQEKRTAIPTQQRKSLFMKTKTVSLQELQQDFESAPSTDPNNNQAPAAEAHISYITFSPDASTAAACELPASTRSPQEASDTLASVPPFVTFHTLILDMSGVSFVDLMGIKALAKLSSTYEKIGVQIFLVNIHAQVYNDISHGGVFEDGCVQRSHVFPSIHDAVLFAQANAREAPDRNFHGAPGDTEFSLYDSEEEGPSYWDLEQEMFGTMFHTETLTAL
The settings on record: 25 mM Cl- added to the medium. The method, then: as §1, §2, §3

Test [3] concerns the target T2, SLC26A7 (Mus musculus, UniProt Q8R2Z3, F233L/S639T).
T2 sequence (Q8R2Z3 1-656 F233L/S639T): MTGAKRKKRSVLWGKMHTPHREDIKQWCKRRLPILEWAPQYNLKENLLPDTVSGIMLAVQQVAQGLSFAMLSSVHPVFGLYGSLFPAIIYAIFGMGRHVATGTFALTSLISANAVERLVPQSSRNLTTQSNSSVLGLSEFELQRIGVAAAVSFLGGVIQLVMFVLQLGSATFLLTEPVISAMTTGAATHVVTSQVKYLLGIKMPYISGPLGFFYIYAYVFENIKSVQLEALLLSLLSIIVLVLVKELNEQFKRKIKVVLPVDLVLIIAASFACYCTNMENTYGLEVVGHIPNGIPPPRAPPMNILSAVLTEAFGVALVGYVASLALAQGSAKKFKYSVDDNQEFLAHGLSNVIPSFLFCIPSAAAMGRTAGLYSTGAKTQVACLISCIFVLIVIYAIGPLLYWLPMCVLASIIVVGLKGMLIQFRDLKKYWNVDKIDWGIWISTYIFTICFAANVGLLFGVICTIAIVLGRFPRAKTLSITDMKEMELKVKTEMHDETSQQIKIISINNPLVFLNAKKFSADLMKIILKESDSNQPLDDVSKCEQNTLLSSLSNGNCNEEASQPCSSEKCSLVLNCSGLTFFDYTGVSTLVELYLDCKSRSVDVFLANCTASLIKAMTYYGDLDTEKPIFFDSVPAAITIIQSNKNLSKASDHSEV
Particulars: 25 mM Cl- added to the medium. As for the experimental part:
as §1, §2, §3

Test [4] deals with T2, SLC26A7. The test is described as follows: 36Cl- uptake in SLC26A7-injected Xenopus oocytes. More on the design: Full-length mouse SLC26A7 and SLC26A9 cDNAs were cloned into the Xenopus expression vector pGEMHE; expressed in transfected cells; host or cells: Xenopus laevis oocytes injected with cRNA transcribed in vitro from pGEMHE. Particulars: 1 mM DIDS, pH 6.0, isotonic and hypotonic conditions. The test is classed as cell-based. The method, then: FIG. 3A is a bar graph that depicts ^36Cl^− uptake (pmol/oocyte/h) as a function of extracellular osmolality and pH in SLC26A7-injected oocytes (A7) and water injected control oocytes (H2O). Oocytes were incubated during the pre-uptake period and uptake period at varying osmolaltiy at either pH 7.4 (open bars), pH 6.0 (black bars), or at pH 6.0 in the presence of 1 mM DIDS (grey bars). ISO, isotonic osmolality, 210 mOsm/kg; HYPO, hypotonic osmolality, 120 mOsm/kg; HYPER, hypertonic osmolality, 300 mOsm/kg; h, hour.

Test [5] deals with T1, SLC26A9. The test is described as follows: 36Cl- uptake (Cl-Cl exchange) in SLC26A9-injected Xenopus oocytes. The test is classed as cell-based. Set-up: Full-length mouse SLC26A7 and SLC26A9 cDNAs were cloned into the Xenopus expression vector pGEMHE; expressed in transfected cells; host or cells: Xenopus laevis oocytes injected with cRNA transcribed in vitro from pGEMHE. Particulars: 1 mM DIDS, pH 6.0. The method, then:
FIG. 3B is a bar graph that depicts DIDS inhibition of ^36Cl^− uptake (pmol/oocyte/h) in SLC26A9injected oocytes (Slc26a9) and water-injected control oocytes (H2O). Oocytes were incubated during the pre-uptake period and uptake period at either pH 7.4 (open bars), pH 6.0 (black bars), or at pH 6.0 in the presence of 1 mM DIDS (grey bars). H, hour.
FIG. 3C is a bar graph that depicts a lack of cis-inhibition of Cl^−-Cl^− exchange in oocytes expressing SLC26A9 or in control oocytes (H2O). Oocytes were incubated in medium containing ^36Cl^− for one hour in the absence (control) or presence of 25 mM of the indicated anions.

For `Cl` [Cl^−, chloride], in test [1], the “effect of extracellular Cl- on 35SO4 2- uptake by SLC26A2” value is recorded as “significantly inhibited”. In addition, the “effect of extracellular Cl- on 35SO4 2- uptake in SLC26A9-injected oocytes” value in test [2] is “without activating”. In addition, in test [3], the “effect of extracellular Cl- on 35SO4 2- uptake in SLC26A7-injected oocytes” value is listed as “without activating”.
As to `O=S(=O)(O)c1cc(N=C=S)ccc1C=Cc1ccc(N=C=S)cc1S(=O)(=O)O` [DIDS, 4,4′-diisothiocyanatostilbene-2,2′-disulfonic acid], the “DIDS sensitivity of SLC26A7 36Cl- uptake activity” value in test [4] is recorded as “modestly DIDS-sensitive”. Also, in test [5], the “DIDS sensitivity of Cl-Cl exchange mediated by SLC26A9” value was “moderately sensitive”.
